Values quoted from earlier work in patent US6194433A, “Sexual dysfunction in females” (Cutler; Neal R., priority 1998, dated 2001).

Columns and labels:
[1] = following coronary artery ligation; Jones et al., Br. J. Pharmacol. 108:1111 (1993)
[2] = Perreault et al., Br. J Pharmacol. 106:511 (1992)
[3] = Kelso et al., J Cardiovasc. Pharmacol. 25:376 (1995)
phosphodiesterase = settings: Frodsham et al., Eur. J. Pharmacol. 211:383 (1992)
phosphodiesterase III = settings: Gristwood et al., Br. J. Pharmacol. 105:985 (1992)
[4] = not given; remark: listed apart in the source

| Structure (SMILES) | effect on mortality or arrhythmias [1] | effect in patients with end-stage failure [2] | usefulness in the treatment of heart failure [3] | time of peak plasma concentrations of flosequinan (following oral administration) [h] | mean absolute bioavailability (oral, single dose of fifty milligrams) [%] | phosphodiesterase inhibition as relevant to efficacy in heart failure (phosphodiesterase) | inhibition of phosphodiesterase III (phosphodiesterase III) | solubility in organic solvents ([4]; many organic solvents) | water solubility ([4]; water) | time of peak metabolite plasma levels (following oral dosage of flosequinan) |
| --- | --- | --- | --- | --- | --- | --- | --- | --- | --- | --- |
| Cn1cc([S+](C)[O-])c(=O)c2ccc(F)cc21 (stereo not shown) [flosequinan, 7-fluoro-1-methyl-3-methylsulphinyl-4-quinolone] | does not affect mortality or arrhythmias | little effect | useful to some degree | 1 to 2 | 72 | questionable | selective inhibitor of phosphodiesterase III | soluble in many organic solvents | water soluble |  |
| Cn1cc(S(C)(=O)=O)c(=O)c2ccc(F)cc21 [metabolite] |  |  |  |  |  |  |  |  |  | about seven |
